The text below walks through data of patent publication US20050272636A1, “Treatment and diagnosis of a reproductive disorder by measuring or inhibiting interferon-gamma” (Adelaide Research & Innovation Pty Ltd., priority 2002, published 2005).

Test [1] has as its system mice. As to the kind of experiment: Effect of IFN-γ treatment on pregnancy outcome in mice (Example 8). It is filed as in vivo. The following applies: implantation rate, viable versus resorbing fetuses, fetal and placental weight on day 18. The method, then:
Mice are housed under specific pathogen-free conditions at the University of Adelaide Medical School Animal House on a 12:12 light-dark cycle, and administered food and water ad libitum. Adult Balb/c×C57B1/6 F1 females (7-10 weeks old) are synchronised into estrus by caging in close proximity to males. Estrus is identified on the basis of presence of cornified epithelial cells in vaginal smears prepared at 0900-1000 h daily and examined by phase contrast microscopy. On the day of estrus (day 0) females are caged with proven fertile Balb/k males for natural mating. The day of sighting a vaginal plug is nominated day 1 of pregnancy.
Mice are randomly allocated to one of four groups and treated as follows: Group 1 (100 ng IFN-γ) mice receive three intraperitoneal injections of […] recombinant mouse IFN-γ (rmIFN-γ, R&D Systems) in 200 μl PBS containing 1% bovine serum albumin (PBS-BSA) at 1700 h on day 0, at 1000 h on day 1 and 1700hon day 1.
Group 2 (250 ng IFN-γ) receive three injections of 250 ng rmIFN-γ according to the same time schedule.
Group 3 (control) receive three injections of PBS-BSA instead of IFN-γ according to the same time schedule.
Group 4 (comparison) Mice are mated but otherwise remain untreated.
Twenty mice per group are used to ensure statistical significance in treatment effects.
Alternatively, a transcervical delivery route for IFN-γ is used. Treatments are delivered directly into the uterine lumen with the aid of a tom-cat catheter (Sovereign, St Louis Mo.). In mated animals this requires removal of vaginal plugs using forceps to allow transcervical access. Mice are randomly allocated to one of four groups and treated as follows: the first group (100 ng IFN-γ) mice receive three transcervical injections of […] recombinant mouse IFN-γ (rmIFN-γ, R&D Systems) in 200 μl PBS containing 1% bovine serum albumin (PBS-BSA) at 1700 h on day 0, at 1000 h on day 1 and 1700 h on day 1. The second group (25 ng IFN-γ) receive three injections of 25 ng rmIFN-γ according to the same time schedule. The third group (control) receive three injections of PBS-BSA instead of IFN-γ according to the same time schedule. For comparison, a fourth group of mice are mated but otherwise would remain untreated. Twenty mice per group are used to ensure statistical significance in treatment effects.
Pregnant females are sacrificed by cervical dislocation at 1000 h -1200 h on day 18 of gestation. The intact uterus of each female is removed and total, viable and resorbing implantation sites counted. Each viable fetus is dissected from the amniotic sac and umbilical cord, and fetuses and placentae weighed. Placental tissues are fixed in paraformaldehyde and processed for histological staining of paraffin sections, using Masson's trichrome stain.

The subject of test [2] is human cervical epithelial cells. As to the kind of experiment: Effect of IFN-γ and TGFβ on GM-CSF synthesis in human cervical epithelial cells (Example 4). It is filed as cell-based. To be noted: 0.5, 5.0 or 50 ng/ml TGFβ1 + 5.0 ng/ml IFN-γ; dose-responsive; 12 h. The procedure:
Human cervical epithelial cells were cultured using a modification of the technique described by Rheinwald et al., Cell 1975 3: 33143 (1975). Cervical biopsies were obtained from consenting women undergoing hysterectomy for non-malignant gynaecological indications. All the women were pre-menopausal, but no distinction was made regarding the stage of their menstrual cycle at the time of surgery. The cervical biopsies were placed in ice-cold Hank's balanced salt solution for transport to the laboratory, washed twice in antibiotic-containing medium, and incubated overnight at 4° C. in Dulbecco's modified Eagle's medium (DMEM) containing 5 U dispase (Boehringer Mannheim). Large sheets of keratinocytes were mechanically stripped from the biopsy using sterile forceps after a subsequent 1 h incubation at room temperature. Disaggregation into single cells was facilitated by incubation in DMEM/0.25% trypsin/0.05% collagenase for 30 minutes at 37° C., and repeated aspiration using a needle and syringe. […]
Supernatant was collected 12 hours later and assayed for GM-CSF activity using a commercial human GM-CSF specific ELISA (R & D Systems) according to the manufacturer's instructions. The GM-CSF content of post-treatment supernatants were normalised to the GM-CSF content of corresponding 12 h (baseline) supernatants and expressed as a percentage of control values.

The test system of test [3] is murine uterine epithelial cells. Description: Effect of rIFNγ and rTGFβ on GM-CSF production in cultured uterine epithelial cells (Example 2). It counts as cell-based, mouse. The following applies: rTGFβ 5 ng/ml; DMEM +penicillin; two experiments. The method, then:
Uterine Epithelial Cell Cultures. Uterine epithelial cells prepared as previously described (Robertson et al., Biol Reprod 46:1069-1079 (1992)) were pooled from 4-6 estrous C57B1/6 or C57B1/6×Balb/c F1 mice and plated in 1 ml culture wells (Nunc, Roskilde, Germany) at 1-2×10^5 cells per ml in 500 μl of Dulbecco's modified Eagles medium containing 10% FCS, […] streptomycin sulphate and […] benzyl penicillin (DMEM +penicillin). After 4 h incubation at 37° C. in 5% CO2 to allow cell adherence, a further 500 μl of DMEM +penicillin, or DMEM +penicillin plus recombinant mouse IFNγ (rIFNγ) and/or recombinant human TGFβ1 (rTGFβ), were added. In some experiments, penicillin-free DMEM (DMEM −penicillin) was used throughout. Culture supernatants were collected and replaced with fresh medium at 16 hours, then collected again 24 hours later, at which time GM-CSF content was determined and adherent cells were quantified as previously described (Robertson et al., Biol Reprod 46:1069-1079 (1992)). All treatments were performed in duplicate or triplicate. rTGFβ and rIFNγ were obtained from R&D Systems, UK.
GM-CSF bioassay: GM-CSF was assayed using the GM-CSF dependant cell line FD 5/12, essentially as previously described (Robertson et al., Biol Reprod 46:1069-1079 (1992)). Cell proliferation was determined by pulsing with 1 μCi of [^3H]-thymidine per well for the last 6 h of the assay. The minimal detectable amount of GM-CSF was 20 pg/ml. The identity of the bioactivity in uterine epithelial cell cultures was confirmed using a goat polyclonal antibody to murine GM-CSF (DNAX, Palo Alto, Calif.) as previously described (Robertson et al., Biol Reprod 46:1069-1079 (1992)). GM-CSF production is expressed as ng GM-CSF/10^5 cells/24 h. Recombinant mouse GM-CSF was obtained from R&D Systems.

“rhTGFβ1: recombinant human transforming growth factor β1 (R&D Systems)”: the “effect on the detrimental effects of IFN-γ on pregnancy outcome” value in test [1] is recorded as “reverses the detrimental effects of IFN-γ”. Also, in test [2], the “effect of TGFβ on the inhibitory effect of IFN-γ on GM-CSF synthesis” value was “counteract the inhibitory effect”. In addition, the “increase in GM-CSF production” value in test [3] is recorded as “approximately 6 fold”.
